Results on 10 molecules are retold here after patent EP4471049A1 (Zealand Pharma A/S, priority 2023, dated 2024).

*1 amine or outer side, *2 acyl side, *3 side chain or, on linkers, in order; H or OH if unused. Where a SMILES comes first, the peptide text is derived from it. Bridges are numbered along the chain shown (N, C = ends). [ ]: non-standard residue; d: D form. 2Nal = N[C@@H](Cc1ccc2ccccc2c1)C(=O)O; AEF = NCCOc1ccc(C[C@H](N)C(=O)O)cc1; X1 = O=C(Cc1ccc(CN[*:1])cc1)[*:2]; 3Pal = N[C@@H](Cc1cccnc1)C(=O)O; αMeL = CC(C)C[C@](C)(N)C(=O)O; Dab = NCC[C@H](N)C(=O)O; Sar = CNCC(=O)O

The first experiment addresses T1, human IL-23R (Homo sapiens, UniProt Q5VWK5).
T1 sequence (Q5VWK5 22-629): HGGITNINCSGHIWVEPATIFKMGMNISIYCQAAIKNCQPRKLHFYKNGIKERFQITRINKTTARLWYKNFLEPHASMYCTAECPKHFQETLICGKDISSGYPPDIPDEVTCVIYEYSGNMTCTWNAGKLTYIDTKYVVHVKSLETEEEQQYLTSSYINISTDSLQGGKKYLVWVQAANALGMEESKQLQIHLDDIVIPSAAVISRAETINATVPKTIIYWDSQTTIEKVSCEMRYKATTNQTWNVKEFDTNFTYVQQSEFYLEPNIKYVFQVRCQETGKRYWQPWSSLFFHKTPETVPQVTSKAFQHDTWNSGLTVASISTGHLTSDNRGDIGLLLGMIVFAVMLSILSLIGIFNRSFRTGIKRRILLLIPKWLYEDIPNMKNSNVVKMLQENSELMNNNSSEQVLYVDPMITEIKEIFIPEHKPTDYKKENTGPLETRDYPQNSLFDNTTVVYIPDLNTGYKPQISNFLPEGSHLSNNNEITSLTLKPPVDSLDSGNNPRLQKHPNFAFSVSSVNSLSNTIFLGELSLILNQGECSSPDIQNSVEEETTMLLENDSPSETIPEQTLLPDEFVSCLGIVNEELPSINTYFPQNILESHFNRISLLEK
Kind of experiment: biochemical.
Settings: not given
An outline of the steps:
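Membranes from HEK293 cells stably expressing Nluc-tagged human IL-23R were incubated 2 h at room temperature with test compound and a fluorophore-labelled tracer. After substrate addition, loss of BRET (TAMRA over luciferase emission) reported tracer displacement. A 4PL fit gave IC50 values.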
For `CC(C)C[C@]1(C)NC(=O)[C@H](Cc2ccc3ccccc3c2)NC(=O)[C@H](Cc2ccc(OCCN)cc2)NC(=O)[C@@H]2CCNC(=O)CC[C@H](NC(=O)[C@H](CO)NC(=O)Cc3ccc(cc3)CNC(=O)CC[C@@H](C(=O)N[C@@H](CCN)C(=O)N[C@@H](Cc3cccnc3)C(=O)N[C@H](Cc3c[nH]cn3)C(N)=O)NC1=O)C(=O)N[C@@H](Cc1c[nH]c3ccccc13)C(=O)N[C@@H](CCC(N)=O)C(=O)N2` [Compound 10, [4-Aminomethyl-phenylacetyl](1c)*SE(2c)WQ[Dab](2c)[Y(2-aminoethoxy)][2-Nal][2-Me-Leu]E(1c)[Dab][3-(3-Pyridyl)-Ala][{d}H]-[NH2]] ([X1]SEWQ[Dab][AEF][2Nal][αMeL]E[Dab][3Pal][dH]-NH2; lactam 3-6, N-10), the “% displacement (hIL-23R binding)” value was determined as 91% and the 50% inhibitory concentration (IC50) (as a rule, the concentration that inhibits the measured activity by half) is 0.0058 nM.
`CC(C)C[C@]1(C)NC(=O)[C@H](Cc2ccc3ccccc3c2)NC(=O)[C@H](Cc2ccc(OCCN)cc2)NC(=O)[C@@H]2CCNC(=O)CC[C@H](NC(=O)[C@H](CO)NC(=O)Cc3ccc(cc3)CNC(=O)CC[C@@H](C(=O)N[C@@H](CCN)C(=O)NCCc3cccnc3)NC1=O)C(=O)N[C@@H](Cc1c[nH]c3ccccc13)C(=O)N[C@@H](CCC(N)=O)C(=O)N2` [Compound 7, [4-Aminomethyl-phenylacetyl](1c)*SE(2c)WQ[Dab](2c)[Y(2-aminoethoxy)][2-Nal][2-Me-Leu]E(1c)[Dab]-[NH-(2-(pyridin-3-yl)ethyl)]] showed an IC50 of 0.012 nM.
Turning to `CC(C)C[C@]1(C)NC(=O)[C@H](Cc2ccc3ccccc3c2)NC(=O)[C@H](Cc2ccc(OCCN)cc2)NC(=O)[C@@H]2CCNC(=O)CC[C@H](NC(=O)[C@H](CO)NC(=O)Cc3ccc(cc3)CNC(=O)CC[C@@H](C(=O)N[C@@H](CCN)C(=O)N(C)[C@@H](Cc3cccnc3)C(N)=O)NC1=O)C(=O)N[C@@H](Cc1c[nH]c3ccccc13)C(=O)N[C@@H](CCC(N)=O)C(=O)N2` [Compound 4, [4-Aminomethyl-phenylacetyl](1c)*SE(2c)WQ[Dab](2c)[Y(2-aminoethoxy)][2-Nal][2-Me-Leu]E(1c)[Dab][N-Me-3-(3-Pyridyl)-Ala]-[NH2]], the “% displacement (hIL-23R binding)” value was found to be 111%.
On the same count and under the same terms, under `CC(C)C[C@]1(C)NC(=O)[C@H](Cc2ccc3ccccc3c2)NC(=O)[C@H](Cc2ccc(OCCN)cc2)NC(=O)[C@@H]2CCNC(=O)CC[C@H](NC(=O)[C@H](CO)NC(=O)Cc3ccc(cc3)CNC(=O)CC[C@@H](C(=O)N[C@@H](CCN)C(=O)NCCCCc3cccnc3)NC1=O)C(=O)N[C@@H](Cc1c[nH]c3ccccc13)C(=O)N[C@@H](CCC(N)=O)C(=O)N2` [Compound 6, [4-Aminomethyl-phenylacetyl](1c)*SE(2c)WQ[Dab](2c)[Y(2-aminoethoxy)][2-Nal][2-Me-Leu]E(1c)[Dab]-[NH-(4-(pyridin-3-yl)butanyl)]] stands 103%.
Regarding `CC(C)C[C@]1(C)NC(=O)[C@H](Cc2ccc3ccccc3c2)NC(=O)[C@H](Cc2ccc(OCCN)cc2)NC(=O)[C@@H]2CCNC(=O)CC[C@H](NC(=O)[C@H](CO)NC(=O)Cc3ccc(cc3)CNC(=O)CC[C@@H](C(=O)N[C@@H](CCN)C(=O)N[C@@H](Cc3c[nH]cn3)C(=O)N[C@@H](Cc3cccnc3)C(N)=O)NC1=O)C(=O)N[C@@H](Cc1c[nH]c3ccccc13)C(=O)N[C@@H](CCC(N)=O)C(=O)N2` [Compound 12, [4-Aminomethyl-phenylacetyl](1c)*SE(2c)WQ[Dab](2c)[Y(2-aminoethoxy)][2-Nal][2-Me-Leu]E(1c)[Dab]H[3-(3-Pyridyl)-Ala]-[NH2]] ([X1]SEWQ[Dab][AEF][2Nal][αMeL]E[Dab]H[3Pal]-NH2; lactam 3-6, N-10), the “% displacement (hIL-23R binding)” value was 104% and the concentration for half-maximal inhibition (IC50) is 0.057 nM.
In the same order, the values of `CC(C)C[C@]1(C)NC(=O)[C@H](Cc2ccc3ccccc3c2)NC(=O)[C@H](Cc2ccc(OCCN)cc2)NC(=O)[C@@H]2CCNC(=O)CC[C@H](NC(=O)[C@H](CO)NC(=O)Cc3ccc(cc3)CNC(=O)CC[C@@H](C(=O)N[C@@H](CCN)C(=O)N[C@@](C)(Cc3cccnc3)C(N)=O)NC1=O)C(=O)N[C@@H](Cc1c[nH]c3ccccc13)C(=O)N[C@@H](CCC(N)=O)C(=O)N2` [Compound 3, [4-Aminomethyl-phenylacetyl](1c)*SE(2c)WQ[Dab](2c)[Y(2-aminoethoxy)][2-Nal][2-Me-Leu]E(1c)[Dab][2-Me-3-(3-Pyridyl)-Ala]-[NH2]] are 99% and 0.034 nM.
In the same order, the values of `CC(C)C[C@]1(C)NC(=O)[C@H](Cc2ccc3ccccc3c2)NC(=O)[C@H](Cc2ccc(OCCN)cc2)NC(=O)[C@@H]2CCNC(=O)CC[C@H](NC(=O)[C@H](CO)NC(=O)Cc3ccc(cc3)CNC(=O)CC[C@@H](C(=O)N[C@@H](CCN)C(=O)N[C@H](Cc3cccnc3)C(N)=O)NC1=O)C(=O)N[C@@H](Cc1c[nH]c3ccccc13)C(=O)N[C@@H](CCC(N)=O)C(=O)N2` [Compound 5, [4-Aminomethyl-phenylacetyl](1c)*SE(2c)WQ[Dab](2c)[Y(2-aminoethoxy)][2-Nal][2-Me-Leu]E(1c)[Dab][{d}3-(3-Pyridyl)-Ala]-[NH2]] are 99% and 0.093 nM.
In the same order, the values of `CC(C)C[C@]1(C)NC(=O)[C@H](Cc2ccc3ccccc3c2)NC(=O)[C@H](Cc2ccc(OCCN)cc2)NC(=O)[C@@H]2CCNC(=O)CC[C@H](NC(=O)[C@H](CO)NC(=O)Cc3ccc(cc3)CNC(=O)CC[C@@H](C(=O)N[C@@H](CCN)C(=O)N[C@@H](Cc3cccnc3)C(=O)N(C)CC(N)=O)NC1=O)C(=O)N[C@@H](Cc1c[nH]c3ccccc13)C(=O)N[C@@H](CCC(N)=O)C(=O)N2` [Compound 9, [4-Aminomethyl-phenylacetyl](1c)*SE(2c)WQ[Dab](2c)[Y(2-aminoethoxy)][2-Nal][2-Me-Leu]E(1c)[Dab][3-(3-Pyridyl)-Ala][Sar]-[NH2]] ([X1]SEWQ[Dab][AEF][2Nal][αMeL]E[Dab][3Pal][Sar]-NH2; lactam 3-6, N-10) are 100% and 0.0053 nM.
Turning to `CC(C)C[C@]1(C)NC(=O)[C@H](Cc2ccc3ccccc3c2)NC(=O)[C@H](Cc2ccc(OCCN)cc2)NC(=O)[C@@H]2CCNC(=O)CC[C@H](NC(=O)[C@H](CO)NC(=O)Cc3ccc(cc3)CNC(=O)CC[C@@H](C(=O)N[C@@H](CCN)C(=O)N[C@H](Cc3c[nH]cn3)C(N)=O)NC1=O)C(=O)N[C@@H](Cc1c[nH]c3ccccc13)C(=O)N[C@@H](CCC(N)=O)C(=O)N2` [Compound 13, [4-Aminomethyl-phenylacetyl](1c)*SE(2c)WQ[Dab](2c)[Y(2-aminoethoxy)][2-Nal][2-Me-Leu]E(1c)[Dab][{d}H]-[NH2]], the “% displacement (hIL-23R binding)” value came to 100% and inhibition was half-maximal at 0.059 nM (IC50).
In the same order, the values of `CNC(=O)[C@H](Cc1cccnc1)NC(=O)[C@H](CCN)NC(=O)[C@@H]1CCC(=O)NCc2ccc(cc2)CC(=O)N[C@@H](CO)C(=O)N[C@H]2CCC(=O)NCC[C@H](NC(=O)[C@H](CCC(N)=O)NC(=O)[C@H](Cc3c[nH]c4ccccc34)NC2=O)C(=O)N[C@@H](Cc2ccc(OCCN)cc2)C(=O)N[C@@H](Cc2ccc3ccccc3c2)C(=O)N[C@@](C)(CC(C)C)C(=O)N1` [Compound 8, [4-Aminomethyl-phenylacetyl](1c)*SE(2c)WQ[Dab](2c)[Y(2-aminoethoxy)][2-Nal][2-Me-Leu]E(1c)[Dab][3-(3-Pyridyl)-Ala]-[NHMe]] are 103% and 0.0098 nM.

Still in this experiment, the particulars now being: read-out: % displacement (hIL-23R binding).
As to `CC(C)C[C@]1(C)NC(=O)[C@H](Cc2ccc3ccccc3c2)NC(=O)[C@H](Cc2ccc(OCCN)cc2)NC(=O)[C@@H]2CCNC(=O)CC[C@H](NC(=O)[C@H](CO)NC(=O)Cc3ccc(cc3)CNC(=O)CC[C@@H](C(=O)N[C@@H](CCN)C(=O)NCCc3cccnc3)NC1=O)C(=O)N[C@@H](Cc1c[nH]c3ccccc13)C(=O)N[C@@H](CCC(N)=O)C(=O)N2` [Compound 7, [4-Aminomethyl-phenylacetyl](1c)*SE(2c)WQ[Dab](2c)[Y(2-aminoethoxy)][2-Nal][2-Me-Leu]E(1c)[Dab]-[NH-(2-(pyridin-3-yl)ethyl)]], the Emax turned out to be 102%.
